In ChEMBL document CHEMBL3046637, “Synthesis of new series of pyrazolo[4,3-d]pyrimidin-7-ones and pyrido[2,3-d]pyrimidin-4-ones for their bacterial and cyclin-dependent kinases (CDKs) inhibitory activities” (Med Chem Res, 2011):
Values after ≈ are worked out from the molar mass of the structure shown.

Experiments:
Escherichia coli [1] = assay: Antimicrobial activity against Escherichia coli NCTC 10418 by agar cup diffusion technique; format: functional
[2] = molecular target: Dual specificity tyrosine-phosphorylation-regulated kinase 1A (Homo sapiens, UniProt Q13627); assay: Inhibition of DYRK1A (unknown origin) using [gamma-33P]-ATP after 10 min
[3] = molecular target: Glycogen synthase kinase-3 beta (Homo sapiens, UniProt P49841); assay: Inhibition of GSK3beta (unknown origin) using GS-l peptide as substrate and [gamma-33P]-ATP after 10 min
[4] = molecular target: T1, Cyclin-dependent kinase 1/cyclin B1 (Homo sapiens, UniProt P06493); assay: Inhibition of CDK1/cyclin B (unknown origin) using histone H1 as substrate and [gamma-33P]-ATP after 10 min; format: protein-complex assay
Candida albicans [5] = assay: Antimicrobial activity against Candida albicans ATCC 10231 by agar cup diffusion technique; format: functional
[6] = molecular target: Glycogen synthase kinase-3 alpha (Homo sapiens, UniProt P49840); assay: Inhibition of GSK3alpha (unknown origin) using GS-l peptide as substrate and [gamma-33P]-ATP after 10 min
Candida albicans [7] = assay: Antimicrobial activity against Candida albicans ATCC 10231 by two-fold serial dilution technique; format: functional
Pseudomonas aeruginosa [8] = assay: Antimicrobial activity against Pseudomonas aeruginosa ATCC 9027 by agar cup diffusion technique; format: functional
[9] = molecular target: Cyclin-dependent kinase 5/CDK5 activator 1 (Homo sapiens, UniProt Q00535); assay: Inhibition of CDK5/p25 (unknown origin) using histone H1 as substrate and [gamma-33P]-ATP after 10 min; format: protein-complex assay
Staphylococcus aureus [10] = assay: Antimicrobial activity against Staphylococcus aureus ATCC 6538 by agar cup diffusion technique; format: functional
Pseudomonas aeruginosa [11] = assay: Antimicrobial activity against Pseudomonas aeruginosa ATCC 9027 by two-fold serial dilution technique; format: functional
Staphylococcus aureus [12] = assay: Antimicrobial activity against Staphylococcus aureus ATCC 6538 by two-fold serial dilution technique; format: functional
[13] = molecular target: T1, Cyclin-dependent kinase 1/cyclin B1; assay: Inhibition of CDK1/cyclin B (unknown origin); format: protein-complex assay
Escherichia coli [14] = assay: Antimicrobial activity against Escherichia coli NCTC 10418 by two-fold serial dilution technique; format: functional

Sequence of Glycogen synthase kinase-3 alpha (P49840 whole entry): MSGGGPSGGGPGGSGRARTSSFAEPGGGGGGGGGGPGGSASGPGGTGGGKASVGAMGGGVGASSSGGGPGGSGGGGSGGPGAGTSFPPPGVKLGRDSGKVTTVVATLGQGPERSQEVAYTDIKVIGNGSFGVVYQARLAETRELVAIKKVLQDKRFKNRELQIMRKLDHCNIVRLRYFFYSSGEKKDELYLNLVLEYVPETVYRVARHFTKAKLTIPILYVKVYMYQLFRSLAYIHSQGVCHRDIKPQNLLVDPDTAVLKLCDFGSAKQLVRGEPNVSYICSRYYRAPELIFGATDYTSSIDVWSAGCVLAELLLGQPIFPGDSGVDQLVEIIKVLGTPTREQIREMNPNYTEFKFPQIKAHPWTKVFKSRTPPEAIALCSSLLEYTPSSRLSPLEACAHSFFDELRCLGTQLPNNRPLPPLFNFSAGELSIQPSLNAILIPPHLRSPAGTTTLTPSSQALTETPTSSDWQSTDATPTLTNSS
Sequence of Glycogen synthase kinase-3 beta (P49841 whole entry): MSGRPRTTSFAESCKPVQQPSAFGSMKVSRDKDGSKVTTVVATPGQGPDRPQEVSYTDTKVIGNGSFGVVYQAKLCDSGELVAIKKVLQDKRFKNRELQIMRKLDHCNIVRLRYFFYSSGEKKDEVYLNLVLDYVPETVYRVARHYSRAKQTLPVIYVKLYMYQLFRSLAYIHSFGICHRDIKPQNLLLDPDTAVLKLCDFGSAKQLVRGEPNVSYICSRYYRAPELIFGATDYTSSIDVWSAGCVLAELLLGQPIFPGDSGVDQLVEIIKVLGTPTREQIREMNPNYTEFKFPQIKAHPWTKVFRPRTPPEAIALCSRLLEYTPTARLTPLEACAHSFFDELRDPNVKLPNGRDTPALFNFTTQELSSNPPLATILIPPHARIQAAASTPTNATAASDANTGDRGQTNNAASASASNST
Sequence of Cyclin-dependent kinase 5/CDK5 activator 1 (Q00535 whole entry, the tested form may be a part): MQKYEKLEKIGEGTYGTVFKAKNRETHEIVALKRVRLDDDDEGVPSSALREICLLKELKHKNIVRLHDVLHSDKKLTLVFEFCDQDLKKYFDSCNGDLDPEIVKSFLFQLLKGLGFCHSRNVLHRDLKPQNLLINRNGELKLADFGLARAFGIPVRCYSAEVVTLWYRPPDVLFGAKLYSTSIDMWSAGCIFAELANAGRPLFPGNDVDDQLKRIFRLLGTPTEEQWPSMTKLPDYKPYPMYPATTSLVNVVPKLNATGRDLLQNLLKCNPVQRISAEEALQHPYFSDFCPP
Sequence of Cyclin-dependent kinase 5/CDK5 activator 1 (Q15078 whole entry, further chain, the tested form may be a part): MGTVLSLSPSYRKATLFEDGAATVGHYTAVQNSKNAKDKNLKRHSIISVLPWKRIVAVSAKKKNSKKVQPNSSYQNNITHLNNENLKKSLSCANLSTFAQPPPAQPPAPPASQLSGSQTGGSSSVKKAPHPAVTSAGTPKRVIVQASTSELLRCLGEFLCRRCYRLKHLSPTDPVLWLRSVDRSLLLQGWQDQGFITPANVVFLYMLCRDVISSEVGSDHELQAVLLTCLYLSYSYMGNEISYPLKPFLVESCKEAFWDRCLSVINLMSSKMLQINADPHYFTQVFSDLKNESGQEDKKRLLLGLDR
T1 sequence (P06493 whole entry, the tested form may be a part): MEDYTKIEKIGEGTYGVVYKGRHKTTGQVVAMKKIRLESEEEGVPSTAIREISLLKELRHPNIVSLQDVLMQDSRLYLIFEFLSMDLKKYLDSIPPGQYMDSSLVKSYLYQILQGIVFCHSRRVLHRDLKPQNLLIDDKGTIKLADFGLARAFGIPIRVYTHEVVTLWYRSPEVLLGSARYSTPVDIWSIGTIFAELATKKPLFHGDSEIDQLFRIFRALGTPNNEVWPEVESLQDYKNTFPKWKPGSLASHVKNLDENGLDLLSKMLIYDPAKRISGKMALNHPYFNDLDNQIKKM
T1 sequence (P14635 whole entry, further chain, the tested form may be a part): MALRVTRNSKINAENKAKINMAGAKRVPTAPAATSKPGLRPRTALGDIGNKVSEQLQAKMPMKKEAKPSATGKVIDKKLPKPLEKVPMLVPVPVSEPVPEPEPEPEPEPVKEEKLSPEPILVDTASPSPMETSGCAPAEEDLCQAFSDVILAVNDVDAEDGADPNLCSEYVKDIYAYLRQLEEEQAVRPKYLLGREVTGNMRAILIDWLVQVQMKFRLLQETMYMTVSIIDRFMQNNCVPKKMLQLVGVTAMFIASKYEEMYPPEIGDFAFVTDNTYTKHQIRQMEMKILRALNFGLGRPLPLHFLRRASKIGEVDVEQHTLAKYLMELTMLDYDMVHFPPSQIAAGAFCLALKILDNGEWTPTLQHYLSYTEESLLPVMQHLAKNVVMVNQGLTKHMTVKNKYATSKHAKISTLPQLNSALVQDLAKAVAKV

IC50 [2]	IC50 [3]	IC50 [4]	IC50 [6]	MIC (Candida albicans [7])	IC50 [9]	MIC (Pseudomonas aeruginosa [11])	MIC (Staphylococcus aureus [12])	IC50 [13]	Structure (SMILES)	diameter of the inhibition zone (DIZ) (Escherichia coli [1])	diameter of the inhibition zone (DIZ) (Candida albicans [5])	MBC (Candida albicans [7])	diameter of the inhibition zone (DIZ) (Pseudomonas aeruginosa [8])	diameter of the inhibition zone (DIZ) (Staphylococcus aureus [10])	MBC (Pseudomonas aeruginosa [11])	MBC (Staphylococcus aureus [12])	MBC (Escherichia coli [14])
> 10 µM	> 10 µM	> 10 µM	> 10 µM	250 µg/mL (≈ 859 µM)	> 10 µM				O=c1[nH]cnc2c(-c3ccc(Br)cc3)n[nH]c12	15.5 mm	28 mm	250 µg/mL (≈ 859 µM)	17.5 mm				
> 10 µM	> 10 µM	> 10 µM	> 10 µM		> 10 µM				CCOc1ccc(S(=O)(=O)N2CCOCC2)cc1-c1nc2ncccc2c(=O)[nH]1	17 mm	17 mm		15 mm	10 mm			
> 10 µM	> 10 µM	> 10 µM	> 10 µM	62.5 µg/mL (≈ 127 µM)	> 10 µM				CCOc1ccc(S(=O)(=O)N2CCN(c3ccccc3)CC2)cc1-c1nc2ncccc2c(=O)[nH]1	16.5 mm	25 mm	250 µg/mL (≈ 509 µM)	15.5 mm	12 mm			
> 10 µM	> 10 µM	> 10 µM	> 10 µM		> 10 µM				CCOC(=O)C(=O)/C(=N\Nc1ccccc1)C(=O)c1ccccc1	16 mm	16 mm		16 mm				
> 10 µM	> 10 µM	> 10 µM	> 10 µM		> 10 µM				CCOC(=O)C(=O)/C(=N\Nc1ccccc1)C(=O)c1ccc(Cl)cc1	16 mm	16 mm		17 mm				
> 10 µM	> 10 µM	> 10 µM	> 10 µM		> 10 µM	125 µg/mL (≈ 428 µM)	62.5 µg/mL (≈ 214 µM)		O=C1NN=C(c2ccccc2)/C(=N/Nc2ccccc2)C1=O	17 mm	17.5 mm		24 mm	30 mm	125 µg/mL (≈ 428 µM)	62.5 µg/mL (≈ 214 µM)	
> 10 µM	> 10 µM	> 10 µM	> 10 µM		> 10 µM		250 µg/mL (≈ 674 µM)		O=C1NN=C(c2ccc(Br)cc2)/C(=N/Nc2ccccc2)C1=O	16 mm	16.5 mm		17.5 mm	20 mm		250 µg/mL (≈ 674 µM)	
> 10 µM	> 10 µM	> 10 µM	> 10 µM		> 10 µM		250 µg/mL (≈ 739 µM)		CCOC(=O)c1[nH]nc(-c2ccc(F)cc2)c1/N=N/c1ccccc1	16 mm	16 mm		17 mm	20 mm		250 µg/mL (≈ 739 µM)	
> 10 µM	> 10 µM	> 10 µM	> 10 µM		> 10 µM		125 µg/mL (≈ 352 µM)		CCOC(=O)c1[nH]nc(-c2ccc(Cl)cc2)c1/N=N/c1ccccc1	16.5 mm	16 mm		16 mm	21 mm		250 µg/mL (≈ 705 µM)	
> 10 µM	> 10 µM	> 10 µM	> 10 µM		> 10 µM	125 µg/mL (≈ 470 µM)			CCOC(=O)c1[nH]nc(-c2ccc(Cl)cc2)c1N	17 mm	17 mm		23 mm	10 mm	> 500 µg/mL		
> 10 µM	> 10 µM	> 10 µM	> 10 µM		> 10 µM				CCOC(=O)c1[nH]nc(-c2ccc(Br)cc2)c1N	15.5 mm	16 mm		17 mm	14 mm			
> 10 µM	> 10 µM	> 10 µM	> 10 µM		> 10 µM				O=c1[nH]cnc2c(-c3ccccc3)n[nH]c12	16 mm	17 mm		17.5 mm	11 mm			
								1.1 µM	COc1ccc(CNc2ncnc3c(C(C)C)n[nH]c23)cc1O								
						250 µg/mL (≈ 715 µM)	3.9 µg/mL (≈ 11.2 µM)		CC1(C)S[C@@H]2[C@H](NC(=O)[C@H](N)c3ccccc3)C(=O)N2[C@H]1C(=O)O [AMPICILLIN]	26 mm			18 mm	40 mm	500 µg/mL (≈ 1430 µM)	15.6 µg/mL (≈ 44.7 µM)	31.2 µg/mL (≈ 89.4 µM)
				7.81 µg/mL (≈ 22.6 µM)					Clc1ccccc1C(c1ccccc1)(c1ccccc1)n1ccnc1 [CLOTRIMAZOLE]		28 mm	15.6 µg/mL (≈ 45.3 µM)					
